The values below come from US20240382518A1, “PHARMACEUTICAL COMPOSITION AND HEALTH FUNCTIONAL FOOD FOR PREVENTION OR TREATMENT OF OSTEOARTHRITIS” (SEOUL NATIONAL UNIVERSITY R&DB FOUNDATION, priority 2021, published 2024).

For assay [1], the system named is SEPHS1-iCKO mice. Kind of assay: post-traumatic osteoarthritis (DMM surgery) in SEPHS1-iCKO mice with NAC or selenate in drinking water. In kind it is in vivo, mouse. The following applies: for osteoarthritis phenotype of SEPHS1-iCKO mice: drinking water with NAC 1 mg/mL or sodium selenate 1 ppm, from 5 days prior to DMM. The protocol: Selenate supplementation or NAC treatment was performed by supplying mice with drinking water in which sodium selenate (1 ppm) or NAC (1 mg/mL) was dissolved. Further, to Sephs1-iCKO mice, NAC, selenate or vehicle was supplemented 5 days prior to DMM surgery.
Posttraumatic osteoarthritis (OA) was induced by executing DMM surgery in 12-week-old (WT C57BL/6) or 13-week-old (SEPHS1^fl/fl or SEPHS1^fl/fl; Col2a1-CreER^T2) mice, and mice (sham) without DMM after incision were used as a control. These mice were sacrificed 6 or 8 weeks after DMM or sham surgery.
As an aging-associated OA model, 24-month-old C57BL/6 male mice were used for histological analysis and 3-month-old mice were used as a control. The extent of cartilage degeneration in the knee joint was assessed by safranin-O staining and scored using the OARSI grading system.

The subject of assay [2] is SEPHS1 knockout mouse-derived chondrocytes. In words: senescence-associated β-galactosidase (SA-β-gal) activity in SEPHS1 knockout mouse-derived chondrocytes. In kind it is cell-based. To be noted: after NAC treatment. The protocol:
(§1) For primary culture of mouse articular chondrocytes, cells derived from femoral condyle and tibial plateaus of 5-day-old ICR mice were isolated. Chondrocytes were cultured in DMEM medium containing 10% FBS (Gibco), 100 units/mL of penicillin, and 100 μg/mL of streptomycin. After 2 days, cells were treated according to the purpose of each experiment. The cultured cells were maintained at 37° C. under 5% CO2 and 3% O2 conditions. In addition, DNA damage and senescence-associated β-galactosidase (SA-β-gal) activity were measured to determine the relationship between SEPHS1 deficiency and cellular senescence. […] In order to determine whether the DNA damage and the increase in SA-β-gal activity caused by SEPHS1 inhibition were caused by the accumulation of ROS, SEPHS1 knockout mouse-derived chondrocytes were additionally treated with N-acetylcysteine (NAC), followed by repeatedly performing the same experiment. As a result, it was confirmed that DNA damage caused by SEPHS1 inhibition and the increase in SA-β-gal activity were reduced after NAC treatment (FIGS. 3P to 3S).

For assay [3] the test system is unchanged. In words: DNA damage (γ-H2AX foci) in SEPHS1 knockout mouse-derived chondrocytes. To be noted: after NAC treatment. Format: cell-based. As for the experimental part: as §1

As for `CC(=O)N[C@@H](CS)C(=O)O` [NAC, N-acetylcysteine], in assay [1] (SEPHS1-iCKO mice, NAC 1 mg/mL in drinking water), the “weight imbalance between the operated legs and the other legs without operation” value is given as “alleviated”. Moreover, the “osteoarthritis phenotype of SEPHS1-iCKO mice” value in assay [1] is given as “alleviated”. The “increase in SA-β-gal activity” value in assay [2] was “reduced”. Further, the “DNA damage caused by SEPHS1 inhibition” value in assay [3] is recorded as “reduced”.

As for `O=[Se](=O)([O-])[O-].[Na+].[Na+]` [selenate, sodium selenate], the “osteoarthritis phenotype of SEPHS1-iCKO mice” value in assay [1] is listed as “did not restore”.
